The subject of the experiment is normal human astrocytes. In words: WST1 cell viability assay, normal astrocytes. The note with it: normal human astrocytes vs GBM cells, 48 hours. It counts as cell-based. The procedure: FIGS. 6A and 6B show the results that PD induces a decrease in cell viability and vacuole formation. […] Data shown represent the means of quintuplicate measurements which were repeated three times. The results are presented as a percentage of control (means±SD).
Cell cytotoxicity was assessed by WST1 assay. U87 and U373 cells were each seeded in a 96-well plate (5×10^3 cells/well) and treated with different concentrations of platycodin D (PD). Then, cells were incubated with a WST1 reagent (Dogen, Seoul, Korea) for 2 hours before reading the plate. Absorbance was measured at 450 nm using an ELISA reader (Versa Max, Molecular Devices, Sunnyvale, Calif., USA).
Inhibition of autophagy has been reported to cause cancer cell death. Therefore, the cytotoxic effects of PD on U87MG, U373MG, and normal astrocytes were examined. After treating these cells with various doses of PD for 48 hours, their cell viability was analyzed by WST1 assays. […] As can be confirmed in FIG. 6B, morphological changes were also visualized by an optical microscope after exposure of GBM cells to 10 μM PD for 24 hours.
On the technique in general: Formazan colour is commonly taken as a measure of viable cells.

Turning to `C[C@@H]1O[C@@H](O[C@H]2[C@H](OC(=O)[C@]34CCC(C)(C)C[C@H]3C3=CC[C@@H]5[C@@]6(C)C[C@H](O)[C@H](O[C@@H]7O[C@H](CO)[C@@H](O)[C@H](O)[C@H]7O)C(CO)(CO)[C@@H]6CC[C@@]5(C)[C@]3(C)C[C@H]4O)OC[C@H](O)[C@@H]2O)[C@H](O)[C@H](O)[C@H]1O[C@@H]1OC[C@@H](O)[C@H](O[C@@H]2OC[C@](O)(CO)[C@H]2O)[C@H]1O` [PD, platycodin D], the “PD-mediated reduction in cell viability” value is listed as “less effective”.

These data come from patent publication US11351218B2, “Composition for preventing or treating glioblastoma comprising Platycodon grandiflorum A. De Candolle, Scutellaria baicalensis, Phellodendron amurense Ruprecht or Rubus coreanus” (University-Industry Cooperation Group of Kyung Hee …, priority 2019, dated 2022).
